Results reported in ChEMBL document CHEMBL3792297, “Studies on phenothiazines: New microtubule-interacting compounds with phenothiazine A-ring as potent antineoplastic agents” (Bioorg Med Chem, 2016).

What was measured:
[1] = Growth inhibition of human SF268 cells at 10 uM after 48 hrs by SRB assay relative to control; assay type: functional; conditions: SF-268, 48 h, read-out: GI
[2] = Growth inhibition of human Hs 578T cells at 10 uM after 48 hrs by SRB assay relative to control; assay type: functional; conditions: read-out: GI
[3] = Growth inhibition of human LOXIMVI cells at 10 uM after 48 hrs by SRB assay relative to control; assay type: functional; conditions: LOX IMVI, read-out: GI
[4] = Growth inhibition of human RXF393 cells at 10 uM after 48 hrs by SRB assay relative to control; assay type: functional; conditions: RXF 393, 48 h, read-out: GI
MDA-MB-435 = assay: Growth inhibition of human MDA-MB-435 cells at 10 uM after 48 hrs by SRB assay relative to control; assay type: functional; conditions: MDA-MB-435, 48 h, read-out: GI
Ovis aries = species on record: Ovis aries; assay: Inhibition of sheep brain tubulin polymerization at 100 uM by DAPI staining-based fluorimetric method
SK-MEL-2 = assay: Growth inhibition of human SK-MEL-2 cells at 10 uM after 48 hrs by SRB assay relative to control; assay type: functional; conditions: SK-MEL-2, 48 h, read-out: GI
[5] = Growth inhibition of human UACC62 cells at 10 uM after 48 hrs by SRB assay relative to control; assay type: functional; conditions: UACC-62, 48 h, read-out: GI
786-0 = assay: Growth inhibition of human 786-0 cells at 10 uM after 48 hrs by SRB assay relative to control; assay type: functional; conditions: 786-0, 48 h, read-out: GI
CCRF-CEM = assay: Growth inhibition of human CCRF-CEM cells at 10 uM after 48 hrs by SRB assay relative to control; assay type: functional; conditions: read-out: GI
SK-MEL-28 = assay: Growth inhibition of human SK-MEL-28 cells at 10 uM after 48 hrs by SRB assay relative to control; assay type: functional; conditions: SK-MEL-28, 48 h, read-out: GI
MCF7 = assay: Growth inhibition of human MCF7 cells at 10 uM after 48 hrs by SRB assay relative to control; assay type: functional; conditions: MCF7, 48 h, read-out: GI
SN12C = assay: Growth inhibition of human SN12C cells at 10 uM after 48 hrs by SRB assay relative to control; assay type: functional; conditions: read-out: GI
[6] = Growth inhibition of human HL-60(TB) cells at 10 uM after 48 hrs by SRB assay relative to control; assay type: functional; conditions: HL-60, 48 h, read-out: GI
HT-29 = assay: Growth inhibition of human HT-29 cells at 10 uM after 48 hrs by SRB assay relative to control; assay type: functional; conditions: HT-29, 48 h, read-out: GI
[7] = Growth inhibition of human UO31 cells at 10 uM after 48 hrs by SRB assay relative to control; assay type: functional; conditions: UO-31, 48 h, read-out: GI
[8] = Growth inhibition of human DU145 cells at 10 uM after 48 hrs by SRB assay relative to control; assay type: functional; conditions: DU-145, 48 h, read-out: GI
[9] = Growth inhibition of human OVCAR8 cells at 10 uM after 48 hrs by SRB assay relative to control; assay type: functional; conditions: OVCAR-8, 48 h, read-out: GI
NCI-H460 = assay: Growth inhibition of human NCI-H460 cells at 10 uM after 48 hrs by SRB assay relative to control; assay type: functional; conditions: NCI-H460, 48 h, read-out: GI
MDA-MB-468 = assay: Growth inhibition of human MDA-MB-468 cells at 10 uM after 48 hrs by SRB assay relative to control; assay type: functional; conditions: MDA-MB-468, 48 h, read-out: GI
[10] = Growth inhibition of human COLO205 cells at 10 uM after 48 hrs by SRB assay relative to control; assay type: functional; conditions: COLO 205, 48 h, read-out: GI
[11] = Growth inhibition of human TK10 cells at 10 uM after 48 hrs by SRB assay relative to control; assay type: functional; conditions: TK-10, 48 h, read-out: GI
[12] = Growth inhibition of human PC3 cells at 10 uM after 48 hrs by SRB assay relative to control; assay type: functional; conditions: PC-3, 48 h, read-out: GI
A498 = assay: Growth inhibition of human A498 cells at 10 uM after 48 hrs by SRB assay relative to control; assay type: functional; conditions: A498, 48 h, read-out: GI
[13] = Growth inhibition of human Caki1 cells at 10 uM after 48 hrs by SRB assay relative to control; assay type: functional; conditions: CAKI-1, 48 h, read-out: GI
[14] = Growth inhibition of human RPMI8226 cells at 10 uM after 48 hrs by SRB assay relative to control; assay type: functional; conditions: RPMI-8226, 48 h, read-out: GI
[15] = Growth inhibition of human HCT116 cells at 10 uM after 48 hrs by SRB assay relative to control; assay type: functional; conditions: HCT-116, 48 h, read-out: GI
[16] = Growth inhibition of human SNB75 cells at 10 uM after 48 hrs by SRB assay relative to control; assay type: functional; conditions: SNB-75, 48 h, read-out: GI
[17] = Growth inhibition of human UACC257 cells at 10 uM after 48 hrs by SRB assay relative to control; assay type: functional; conditions: UACC-257, 48 h, read-out: GI
SR = assay: Growth inhibition of human SR cells at 10 uM after 48 hrs by SRB assay relative to control; assay type: functional; conditions: read-out: GI
NCI-H522 = assay: Growth inhibition of human NCI-H522 cells at 10 uM after 48 hrs by SRB assay relative to control; assay type: functional; conditions: NCI-H522, 48 h, read-out: GI
NCI-H226 = assay: Growth inhibition of human NCI-H226 cells at 10 uM after 48 hrs by SRB assay relative to control; assay type: functional; conditions: NCI-H226, 48 h, read-out: GI
[18] = Growth inhibition of human SF295 cells at 10 uM after 48 hrs by SRB assay relative to control; assay type: functional; conditions: SF-295, 48 h, read-out: GI
[19] = Growth inhibition of human IGROV1 cells at 10 uM after 48 hrs by SRB assay relative to control; assay type: functional; conditions: IGROV-1, 48 h, read-out: GI
[20] = Growth inhibition of human OVCAR4 cells at 10 uM after 48 hrs by SRB assay relative to control; assay type: functional; conditions: OVCAR-4, 48 h, read-out: GI
NCI-H322M = assay: Growth inhibition of human NCI-H322M cells at 10 uM after 48 hrs by SRB assay relative to control; assay type: functional; conditions: read-out: GI

| Structure (SMILES) | inhibition of growth at 10 µM [1] [%] | inhibition of growth at 10 µM [2] [%] | inhibition of growth at 10 µM [3] [%] | inhibition of growth at 10 µM [4] [%] | inhibition of growth at 10 µM (MDA-MB-435) [%] | inhibition of growth at 10 µM (SK-MEL-2) [%] | inhibition of growth at 10 µM [5] [%] | inhibition of growth at 10 µM (786-0) [%] | inhibition of growth at 10 µM (CCRF-CEM) [%] | inhibition of growth at 10 µM (SK-MEL-28) [%] | inhibition of growth at 10 µM (MCF7) [%] | inhibition of growth at 10 µM (SN12C) [%] | inhibition of growth at 10 µM [6] [%] | inhibition of growth at 10 µM (HT-29) [%] | inhibition of growth at 10 µM [7] [%] | inhibition of growth at 10 µM [8] [%] | inhibition of growth at 10 µM [9] [%] | inhibition of growth at 10 µM (NCI-H460) [%] | inhibition of growth at 10 µM (MDA-MB-468) [%] | inhibition of growth at 10 µM [10] [%] | further results |
| --- | --- | --- | --- | --- | --- | --- | --- | --- | --- | --- | --- | --- | --- | --- | --- | --- | --- | --- | --- | --- | --- |
| O/N=C(/c1ccc2c(c1)Sc1ccccc1N2)c1c[nH]c2ccccc12 | 44 | 40 | 44 | 24 | 100 | 57 | 54 | 38 | 76 | 31 | 57 | 27 | 87 | 84 | 41 | 41 | 24 | 82 | 63 | 45 | inhibition (Ovis aries): 15%; inhibition of growth at 10 µM [11]: 21%; inhibition of growth at 10 µM [12]: 72%; inhibition of growth at 10 µM (A498): 53%; inhibition of growth at 10 µM [13]: 53%; inhibition of growth at 10 µM [14]: 53%; inhibition of growth at 10 µM [15]: 64%; inhibition of growth at 10 µM [16]: 47%; inhibition of growth at 10 µM [17]: 18%; inhibition of growth at 10 µM (SR): 91%; inhibition of growth at 10 µM (NCI-H522): 100%; inhibition of growth at 10 µM (NCI-H226): 23%; inhibition of growth at 10 µM [18]: 55%; inhibition of growth at 10 µM [19]: 44%; inhibition of growth at 10 µM [20]: 26%; inhibition of growth at 10 µM (NCI-H322M): 26% |
| COc1ccc(C(=O)c2ccc3c(c2)Sc2ccccc2N3C)cc1F | 2 | 7 | 21 | 11 | 87 | 17 | 26 | 16 | 12 | 13 | 37 | 13 | 0 | 30 | 2 | 0 | 4 | 13 | 55 | 34 | inhibition of growth at 10 µM [11]: 8%; inhibition of growth at 10 µM [12]: 21%; inhibition of growth at 10 µM (A498): 45%; inhibition of growth at 10 µM [13]: 22%; inhibition of growth at 10 µM [14]: 5%; inhibition of growth at 10 µM [15]: 17%; inhibition of growth at 10 µM [16]: 1%; inhibition of growth at 10 µM [17]: 8%; inhibition of growth at 10 µM (SR): 32%; inhibition of growth at 10 µM (NCI-H522): 22%; inhibition of growth at 10 µM (NCI-H226): 15%; inhibition of growth at 10 µM [18]: 16%; inhibition of growth at 10 µM [19]: 7%; inhibition of growth at 10 µM [20]: 10%; inhibition of growth at 10 µM (NCI-H322M): 5% |
| COc1ccc(C(=O)c2ccc3c(c2)Sc2cc(C(=O)c4ccc(OC)c(F)c4)ccc2N3C)cc1F | 0 | 17 | 0 | 2 | 0 | 4 | 0 | 23 | 0 | 0 | 7 | 2 | 0 | 5 | 1 | 0 | 6 | 0 | 13 | 0 | inhibition of growth at 10 µM [11]: 7%; inhibition of growth at 10 µM [12]: 3%; inhibition of growth at 10 µM (A498): 5%; inhibition of growth at 10 µM [13]: 0%; inhibition of growth at 10 µM [14]: 0%; inhibition of growth at 10 µM [15]: 2%; inhibition of growth at 10 µM [16]: 2%; inhibition of growth at 10 µM [17]: 11%; inhibition of growth at 10 µM (SR): 4%; inhibition of growth at 10 µM (NCI-H522): 20%; inhibition of growth at 10 µM (NCI-H226): 0%; inhibition of growth at 10 µM [18]: 0%; inhibition of growth at 10 µM [19]: 0%; inhibition of growth at 10 µM [20]: 0%; inhibition of growth at 10 µM (NCI-H322M): 0% |
